Laboratory results as given in patent US20030069194A1, “Inhibition of viral replication by targeting RNA-DNA complexes” (priority 2001, published 2003).
Counter-ions that a name gives are not always drawn.

Experiments:
[1] = system: 18C-18R duplex (RNase H substrate of HIV-1 RT); assay: RT-induced RNase H cleavage of the 18C-18R duplex (gel assay); format: biochemical; conditions: for hierarchy of the extent of inhibition of RT-induced cleavage: 18C-18R duplex, aminoglycosides 312.5 μM, FIG. 1b, 1d; for inhibition of RT-induced cleavage at the primary site: FIG. 1c
Excerpt: The first model oligonucleotide was a 18mer chimeric duplex (18C-18R). 18C-18R mimics a RNase H substrate during minus-strand strong-stop synthesis. (FIG. 1a). Mueller, U. et al. Crystal structure of an eight-base pair duplex containing the 3′-DNA RNA-5′ junction formed during initiation of minus-strand synthesis of HIV replication, Biochemistry 37,12005-12011 (1998). […] Note that RT cleaves the RNA strand (18R) opposite the chimeric RNA-DNA strand (18C) at three sites (FIGS. 1a, b). The primary cleavage site lies between base positions +1 and +2 (counting from the RNA-DNA junction in the 5′ direction on the cleaved RNA strand). Two other minor cleavage sites lie between positions +3 and +4 and between positions −1 and +1, with the former site being cleaved to a greater extent than the latter site. Götte, M. et al., HIV-1 Reverse transcriptase-associated RNase H cleaves RNA/RNA in arrested complexes: Implications for the mechanism by which RNase H discriminates between RNA/RNA and RNA/DNA, EMBO J. 14, 833-841 (1995).
(§1) Recombinant HIV-1 RT p66 was isolated from Escherichia coli JM 109. Pandey, V. N. et al, Role of methionine 184 of human immunodeficiency virus type-1 reverse transcriptase in the polymerase function and fidelity of DNA synthesis, Biochemistry 35, 2168-2179 (1996). The 18C and 18R oligonucleotides were purchased from Dharmacon Research, Inc. (Lafayette, Colo.). The 18D oligonucleotide was obtained from Integrated DNA Technologies, Inc. (Coralville, Iowa). Neomycin trisulfate trihydrate, the free base of tobramycin, paromomycin sulfate, and kanamycin B sulfate were obtained from Fluka, while kanamycin A monosulfate and ribostamycin sulfate dihydrate were obtained from Sigma.
(§2) The RNase H activity of RT was assayed in a 10 μl reaction mixture containing 10 mM PIPES (pH 6.0) and 5 mM MgCl2. Ten pmol of either 18C or 18R were ^32P-labeled at the 5′ end using T4 polynucleotide kinase. For the cleavage experiments, different aminoglycosides were mixed with 0.5 μM of target duplex. A small amount of RT, 0.1 μg, was then added to initiate the cleavage reaction. After incubation at 37° C. for 30 min, the reaction was stopped by addition of 3 M urea containing a mixture of bromophenol blue and xylene cyanol. Denaturation of the 18C-18R duplex required the addition of 5 M urea as well as heating at 95° C. for 5 min prior to gel loading. The cleavage products were resolved in a 10% polyacrylamide gel containing 8 M urea. The gels were subsequently analyzed using a phosphoimager (Molecular Dynamics, Inc.).

[2] = system: 18C-18D duplex (RNase H substrate of HIV-1 RT); assay: RT-induced RNase H cleavage of the 18C-18D duplex (gel assay); format: biochemical; conditions: for hierarchy of inhibition of RT-induced cleavage: 18C-18D duplex, aminoglycosides 2.0 mM, FIG. 2b, 2c
Excerpt: The second model oligonucleotide was a 18mer chimeric duplex (18C-18D). 18C-18D mimics a RNase H substrate during plus-strand strong-stop synthesis (FIG. 2a), which occurs following minus-strand DNA synthesis. Fedoroff, O. Y., et. al., B. R. Structural variation among retroviral primer-DNA junctions: Solution structure of the HIV-1 (−)-strand Okazaki fragment r(gcca)d(CTGC)-d(GCAGTGGC), Biochemistry 35,11070-11080 (1996). For the 18C-18D duplex, RT cleaves the RNA portion of the chimeric strand (18C) opposite the DNA strand (18D) at only a single site (FIGS. 2a, b), in marked contrast to the three cleavage sites observed in the 18C-18Rduplex. This unique cleavage site lies between base positions +1 and +2 (counting from the RNA-DNA junction in the 5′ direction on the cleaved chimeric strand). Furfine, E. S. & Reardon, J. E., Human immunodeficiency virus reverse transcriptase ribonuclease H: Specificity of tRNA(Lys3)-primer excision, Biochemistry 30, 7041-7046 (1991); Smith, J. S. & Roth, M. J. Specificity of human immunodeficiency virus-1 reverse transcriptase-associated ribonuclease H in removal of the minus-strand primer tRNA(Lys3), J. Biol. Chem. 267, 15071-15079 (1992). […] As noted above for the 18C-18R duplex, this hierarchy of cleavage inhibition correlates with the relative binding affinities of the three ligands for the 18C-18D duplex.
as §1
as §2, with “containing 110” for “containing 10”
To determine the nature of the aminoglycoside-induced inhibition of RT-catalyzed RNase H cleavage, the impact of RT concentration on neomycin-induced inhibition was examined. […] In the presence of 1 mM neomycin, increasing the concentrations of RT overcomes the RNase H inhibitory effect of the drug.

Molecule | hierarchy of the extent of inhibition of RT-induced cleavage [1] | hierarchy of inhibition of RT-induced cleavage [2] | inhibition of RT-induced cleavage at the primary site ([1]; neomycin to binding site ratio of 1 (stoichiometric concentration)) [%] | inhibition of RT-induced cleavage at the primary site ([1]; neomycin to binding site ratio of 5) | nature of inhibition of RNase H activity of RT ([2]; 1 mM neomycin, increasing RT 0.1-2.7 μg, FIG. 2d) | neomycin required for 50% inhibition of RT-induced cleavage, 18C-18D relative to 18C-18R ([2]; comparison of FIGS. 1c and 2c)
NC[C@@H]1O[C@H](O[C@H]2[C@@H](O)[C@H](O[C@@H]3[C@@H](O)[C@H](N)C[C@H](N)[C@H]3O[C@H]3O[C@H](CO)[C@@H](O)[C@H](O)[C@H]3N)O[C@@H]2CO)[C@H](N)[C@@H](O)[C@@H]1O [paromomycin, paromomycin sulfate] | neomycin>paromomycin>tobramycin>kanamycin B>ribostamycin>>kanamycin A | neomycin>paromomycin>ribostamycin | – | – | – | –
Neomycin trisulfate trihydrate | neomycin>paromomycin>tobramycin>kanamycin B>ribostamycin>>kanamycin A | neomycin>paromomycin>ribostamycin | 80 | total inhibition | competitive | approximately 420 times
